The term EC50 denotes the midpoint of the concentration-response curve.

The test system of this assay is SARS-CoV-2. Briefly: Antiviral activity against SARS-CoV-2 pseudotyped lentivirus infected in HEK293 cells overexpressing EGFP-fused hACE2 coexpressing mCherry assessed as reduction in virus entry incubated for 40 mins by immunocytochemistry assay. To be noted: Severe acute respiratory syndrome coronavirus 2, HEK293, 40 min. The format is functional, organism-based.

For the molecule `C=C[C@@](C)(/C=C/c1ccc(O)cc1)CCC=C(C)C` [BAKUCHIOL], the EC50 turned out to be 110 µM.

Consider `CC(C)=CCc1c(O)ccc(C(=O)/C=C/c2ccc(O)cc2)c1O` [ISOBAVACHALCONE], for which the EC50 was 51.5 µM.

Values taken from ChEMBL document CHEMBL5512692, “Colloidal Aggregation Confounds Cell-Based Covid-19 Antiviral Screens” (J Med Chem, 2024).
